Among the data in PubChem BioAssay (NCI) are TGI values, retold here.

Test systems include MCF7 breast; PC-3 prostate; SNB-75 CNS; SNB-19 CNS; MDA-MB-435; KM12 colon; SN12C renal; HT29 colon; NCI-H226 lung; UACC-62 melanoma; HL-60(TB) leukemia; HOP-92 NSCLC; NCI-H460 lung; OVCAR-4 ovarian; OVCAR-3 ovarian; SR leukemia; 786-0 renal; SK-MEL-5 melanoma; T-47D breast; SF-539 CNS.
Holding throughout (assay): DTP human tumour cell line panel, 48 h

The structures appear in SMILES notation.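 Where inhibition never reached the appropriate level, the endpoint shown equals the highest concentration tested. Otherwise, values were interpolated linearly from a five-concentration, 48-hour dose response in 96-well plates. The concentration for full growth arrest is given as TGI.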

Regarding `CC[C@]1(Cc2ccc(OC)c(OC)c2)C2CC(C(=O)OC)ON2O[C@H](OCc2ccccc2)[C@@H]1OC(C)=O` (some centres not stated), the TGI in the test with MCF7 breast, in the test on PC-3 prostate, with SNB-75 CNS, with SNB-19 CNS, with MDA-MB-435 and in the test with KM12 colon was more than 100 µM throughout. Further, the TGI – broadly, the concentration at which net growth stops – with SN12C renal was more than 100 µM; in the test on HT29 colon, more than 100 µM; with NCI-H226 lung it was more than 100 µM; with UACC-62 melanoma, more than 100 µM; with HL-60(TB) leukemia, 66.1 µM; in the test with HOP-92 NSCLC, more than 100 µM. The concentration for total growth inhibition (TGI) in the test on NCI-H460 lung, with OVCAR-4 ovarian, in the test on OVCAR-3 ovarian, with SR leukemia, in the test on 786-0 renal and with SK-MEL-5 melanoma was more than 100 µM each time. In the test on T-47D breast, this compound showed a total growth inhibition concentration (TGI) of more than 100 µM.
For the compound `CNC(=O)N1CN(c2ccccc2)C2(CCN(Cc3ccccc3)CC2)C1=O`, the total growth inhibition concentration (TGI) with MCF7 breast, with PC-3 prostate, with SNB-75 CNS, with SF-539 CNS, with SNB-19 CNS and with KM12 colon was more than 100 µM in each case. Also, the TGI with SN12C renal, in the test with HT29 colon, in the test with NCI-H226 lung, in the test on UACC-62 melanoma, in the test on HL-60(TB) leukemia and with OVCAR-3 ovarian was more than 100 µM throughout. The TGI in the test with SR leukemia is 52.3 µM; in the test with 786-0 renal, more than 100 µM; with SK-MEL-5 melanoma it was more than 100 µM; in the test with T-47D breast, 11 µM.
Take `CC(C)=NOC(=O)OC[C@H]1O[C@@H](n2cnc3c(N)ncnc32)C(O)C1O` (some centres not stated): the TGI with MCF7 breast, in the test with PC-3 prostate, in the test with SNB-75 CNS, with SF-539 CNS, with SNB-19 CNS and with MDA-MB-435 was more than 100 µM throughout. The concentration for total growth inhibition (TGI) in the test on KM12 colon, with SN12C renal, in the test on HT29 colon, in the test with NCI-H226 lung, in the test with HL-60(TB) leukemia and in the test on NCI-H460 lung was more than 100 µM throughout. Further, the total growth inhibition concentration (TGI) in the test with OVCAR-4 ovarian, in the test with OVCAR-3 ovarian, in the test with SR leukemia, in the test with 786-0 renal, in the test with SK-MEL-5 melanoma and with T-47D breast was more than 100 µM in each case.
Take `Cc1c(C(=O)Nc2ccccc2)nnn1-c1ccnc2cc(C(F)(F)F)ccc12`: the concentration for total growth inhibition (TGI) with MCF7 breast, in the test with PC-3 prostate, with SNB-75 CNS, in the test on SF-539 CNS, with SNB-19 CNS and in the test on MDA-MB-435 was more than 100 µM in each case. For the same compound, the concentration for total growth inhibition (TGI) was more than 100 µM with KM12 colon; more than 100 µM in the test with SN12C renal; more than 100 µM in the test on HT29 colon; more than 100 µM with NCI-H226 lung; more than 100 µM with UACC-62 melanoma; 77.7 µM with HL-60(TB) leukemia. For the same compound, the concentration for total growth inhibition (TGI) in the test with HOP-92 NSCLC was 95.4 µM; in the test on NCI-H460 lung it was more than 100 µM; in the test with OVCAR-4 ovarian, more than 100 µM; with OVCAR-3 ovarian, more than 100 µM; in the test with 786-0 renal, more than 100 µM; in the test on SK-MEL-5 melanoma it was 52.6 µM. The TGI with T-47D breast is more than 100 µM.
As for `CCCCc1nc(C)oc1C(C)C`, the total growth inhibition concentration (TGI) in the test on MCF7 breast, with PC-3 prostate, in the test on SNB-75 CNS, with SF-539 CNS, with MDA-MB-435 and in the test with KM12 colon was more than 100 µM each time. For the same compound, the TGI in the test with SN12C renal, with HT29 colon, in the test with NCI-H226 lung, in the test with UACC-62 melanoma, in the test on HL-60(TB) leukemia and in the test with HOP-92 NSCLC was more than 100 µM each time. Also, the TGI with NCI-H460 lung, with OVCAR-4 ovarian, with OVCAR-3 ovarian, in the test with 786-0 renal, with SK-MEL-5 melanoma and with T-47D breast was more than 100 µM throughout.
Take `O=C1CCCCCCCCCCC1CN1CCOCC1` (configuration not stated): the TGI in the test with MCF7 breast, in the test on PC-3 prostate, with SF-539 CNS, in the test with SNB-19 CNS, in the test with MDA-MB-435 and in the test on KM12 colon was more than 100 µM throughout. The TGI in the test with SN12C renal, in the test on NCI-H226 lung, in the test with UACC-62 melanoma, in the test with HL-60(TB) leukemia, in the test with HOP-92 NSCLC and in the test with OVCAR-4 ovarian was more than 100 µM in each case. Besides, the TGI in the test with OVCAR-3 ovarian, with SR leukemia, with 786-0 renal, with SK-MEL-5 melanoma and in the test with T-47D breast was more than 100 µM each time.
Take `CCOC(=O)[C@@]1(C(C)=O)CC(C)=C(C)C[S@]1=O`: the TGI in the test on MCF7 breast, in the test with PC-3 prostate, with SNB-75 CNS, in the test on SNB-19 CNS, in the test on MDA-MB-435 and in the test on KM12 colon was more than 100 µM in each case. In addition, the TGI with SN12C renal, with NCI-H226 lung, in the test with UACC-62 melanoma, in the test with HOP-92 NSCLC, in the test on NCI-H460 lung and in the test with OVCAR-4 ovarian was more than 100 µM in each case. Further, the TGI with OVCAR-3 ovarian, in the test with SR leukemia, with 786-0 renal and with T-47D breast was more than 100 µM in each case.
For the compound `C1=CCC[C@@H]2CN3CCCC/C=C\CCCC[C@H]4C[C@H](CN(CCCCCCCC1)C4)[C@H]2CC3`, the TGI with MCF7 breast was determined as 16.4 µM; in the test with PC-3 prostate, 41.2 µM; in the test with SNB-75 CNS it was 16.5 µM; with SF-539 CNS it was 14.9 µM; in the test with SNB-19 CNS, 22.2 µM; in the test with MDA-MB-435 it was 15.7 µM. The TGI is 15.6 µM in the test with KM12 colon; 21 µM with SN12C renal; 20.8 µM in the test on HT29 colon; more than 50 µM in the test with NCI-H226 lung; 16.9 µM in the test on UACC-62 melanoma; 28.4 µM with HL-60(TB) leukemia. Further, the concentration for total growth inhibition (TGI) in the test on NCI-H460 lung is 18.7 µM; with OVCAR-4 ovarian it was 26.8 µM; in the test with OVCAR-3 ovarian it was 15.2 µM; with SR leukemia, 20.1 µM; in the test with 786-0 renal, 15.9 µM; with SK-MEL-5 melanoma, 16.3 µM. In the test on T-47D breast, this compound showed a concentration for total growth inhibition (TGI) of 20.8 µM.
